Results taken from ChEMBL document CHEMBL4184303, “Anti-inflammatory isoflavones and isoflavanones from the roots of Pongamia pinnata (L.) Pierre” (Bioorg Med Chem Lett, 2018).

Tests used:
BV-2 [1] = experiment: Cytotoxicity against mouse BV2 cells at 50 uM by MTT assay; type: cell-based; conditions: bv-2, 50 µM
BV-2 [2] = experiment: Antiinflammatory activity in mouse BV2 cells assessed as inhibition of LPS-induced nitric oxide production; type: functional, cell-based

Row | Structure (SMILES) | Activity (BV-2 [1]) | IC50 (BV-2 [2])
1 | COc1ccc(-c2coc3cc(OCC=C(C)C)ccc3c2=O)cc1 | Non-Toxic | 45.2 µM
2 | CC(C)=CCOc1ccc2c(=O)c(-c3ccc4c(c3)OCO4)coc2c1 | Non-Toxic | 46.6 µM
3 | COc1ccc(-c2coc3c(-c4c(OC)cc([C@@H]5OO[C@@H]5CO)cc4OC)c(O)ccc3c2=O)cc1O | Non-Toxic | 9 µM
4 | COc1cc(O)c2c(=O)c(-c3cc(OC)c(O)c(O)c3CC=C(C)C)coc2c1 | Non-Toxic | 16.5 µM
5 | COc1ccc(-c2coc3cc(OCC=C(C)C)ccc3c2=O)cc1OC | Non-Toxic | 36.9 µM
6 | COc1ccc(-c2coc3c(OC)c(OCC=C(C)C)ccc3c2=O)cc1 | Non-Toxic | 35.7 µM
7 | COc1cc(-c2coc3cc(O)ccc3c2=O)cc(O)c1-c1c(OC)cc([C@@H]2OO[C@@H]2CO)cc1OC | Non-Toxic | 19.7 µM
8 | COc1ccc(-c2coc3cc(OCC=C(C)C)cc(O)c3c2=O)cc1 | – | > 50 µM
9 | COc1ccc([C@@H]2COc3cc(O)ccc3C2=O)cc1 | – | > 50 µM
10 | COc1cc(O)cc(-c2coc3cc(O)ccc3c2=O)c1 | – | > 50 µM
11 | COc1ccc(-c2coc3cc(OCC=C(C)C)cc(O)c3c2=O)cc1OC | – | > 50 µM
12 | COc1cc(O)c([C@@H]2COc3cc(O)ccc3C2=O)c(OC)c1OC | Non-Toxic | 35.8 µM
13 | COc1cc(O)cc(-c2coc3cc(O)c(OC)cc3c2=O)c1 | – | > 50 µM
14 | COc1ccc([C@@H]2COc3cc(O)ccc3C2=O)c(O)c1 | Non-Toxic | 39.8 µM
15 | COc1ccc([C@@]2(O)COc3cc(OC)ccc3C2=O)c(O)c1 | – | > 50 µM
16 | COc1cc(-c2coc3cc(O)ccc3c2=O)ccc1O | Non-Toxic | 39.8 µM
17 | COc1cc(-c2coc3cc(O)ccc3c2=O)cc(OC)c1O | – | > 50 µM
18 | COc1cc(-c2coc3cc(O)cc(O)c3c2=O)ccc1O [3'-O-METHYLOROBOL] | – | > 50 µM
19 | COc1ccc([C@@H]2COc3cc(O)ccc3C2=O)c(OC)c1 [(3R)-SATIVANONE] | – | > 50 µM
20 | COc1ccc([C@@H]2COc3cc(O)ccc3C2=O)c(OC)c1O [(3R)-VIOLANONE] | – | > 50 µM
21 | O=c1c(-c2ccc(O)cc2)coc2cc(O)ccc12 [DAIDZEIN] | – | > 50 µM
22 | C[C@@H]1C[C@H]2[C@@H]3CCC4=CC(=O)C=C[C@]4(C)[C@@]3(F)[C@@H](O)C[C@]2(C)[C@@]1(O)C(=O)CO [DEXAMETHASONE] | – | 9.5 µM
23 | COc1cc(-c2coc3c(CC=C(C)C)c(O)c(CC=C(C)C)c(O)c3c2=O)ccc1O [FLEMINGSIN] | – | > 50 µM
24 | COc1ccc(-c2coc3cc(O)ccc3c2=O)cc1 [FORMONONETIN] | – | > 50 µM
25 | O=c1c(-c2ccc(O)cc2)coc2cc(O)cc(O)c12 [GENISTEIN] | Non-Toxic | 28.4 µM
26 | COc1ccc(-c2coc3cc(O)cc(O)c3c2=O)cc1O [PRATENSEIN] | Non-Toxic | 26.3 µM
